This passage reports percent effect (mortality or growth inhibition), mortality and percent control (mortality, anti-feedant effect or growth inhibition) results from patent US20240108006A1, “PESTICIDALLY ACTIVE HETEROAROMATIC COMPOUNDS” (SYNGENTA CROP PROTECTION AG, priority 2021, published 2024).

Each structure is given as a SMILES string. Like-named read-outs stand apart in the source and are kept apart here.

What all share (format): in vivo
The test system of one assay is Plutella xylostella. As to the kind of experiment: Example B8: Plutella xylostella (diamond back moth), artificial diet 24-well, eggs. Particulars: 192 h, application rate of 200 ppm, 8 days after infestation, read-out: effect in at least one of the two categories (mortality or growth inhibition). The procedure, abridged: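 Plutella eggs placed onto dried, compound-treated artificial diet, the aqueous test solutions diluted from 10,000 ppm DMSO stocks. Eight days post-infestation, larvae rated for mortality and growth inhibition relative to untreated controls.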

A further assay has as its system Myzus persicae. As to the kind of experiment: Example B7: Myzus persicae (green peach aphid), intrinsic activity, sucrose solution 24-well. Particulars: 120 h, read-out: control (mortality). An excerpt: Example B7: Myzus persicae (Green Peach Aphid). Intrinsic Activity
Test compounds prepared from 10,000 ppm DMSO stock solutions were applied by pipette into 24-well microtiter plates and mixed with sucrose solution. The plates were closed with a stretched Parafilm. A plastic stencil with 24 holes was placed onto the plate and infested pea seedlings were placed directly on the Parafilm. The infested plate was closed with a gel blotting paper and another plastic stencil and then turned upside down. The samples were assessed for mortality 5 days after infestation.
The following compounds gave an effect of at least 80% control at an application rate of 12.5 ppm: […]

A further assay has as its system Chilo suppressalis. As to the kind of experiment: Example B1: Chilo suppressalis (striped rice stemborer), artificial diet, L2 larvae. Particulars: 144 h, application rate of 200 ppm, 6 days after infestation, read-out: control in at least one of the three categories (mortality, anti-feedant effect, or growth inhibition). The procedure, abridged: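 L2 larvae (6-8 per well) were placed on dried artificial diet that had been dosed with aqueous dilutions of 10,000 ppm DMSO stock solutions. After 6 days, control was credited if mortality, antifeedant effect or growth inhibition was higher than in untreated samples.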

The test system of the next assay is Spodoptera littoralis. As to the kind of experiment: Example B9: Spodoptera littoralis (Egyptian cotton leaf worm), cotton leaf discs, L1 larvae. Particulars: foliar, 72 h, application rate of 200 ppm, 3 days after infestation, read-out: control in at least one of the three categories (mortality, anti-feedant effect, or growth inhibition). The procedure, abridged:
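Five L1 larvae placed on sprayed, dried cotton leaf discs; spray solutions aqueous, from 10,000 ppm DMSO stocks. Control given when mortality, anti-feedant effect or growth inhibition exceeds untreated samples at 3 days.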

The mark [1] stands for this setting: application rate of 12.5 ppm, 5 days after infestation.

Turning to `C[C@H](NC(=O)Nc1cc(Oc2ncccn2)c(Cl)cc1Cl)c1ncnn1-c1ncccn1` [Example P138, 1-(2,4-dichloro-5-pyrimidin-2-yloxy-phenyl)-3-[(1S)-1-(2-pyrimidin-2-yl-1,2,4-triazol-3-yl)ethyl]urea], the percent effect (mortality or growth inhibition) at 200 ppm in the assay with Plutella xylostella was not below 80%. Further, the mortality at 12.5 ppm in the assay on Myzus persicae (setting [1]) was not below 80%. Further, the percent control (mortality, anti-feedant effect or growth inhibition) at 200 ppm with Chilo suppressalis is not below 80%.

As to `CC(C)Oc1cc(NC(=O)N[C@@H](C)c2ncnn2-c2ncccn2)c(F)cc1Br` [Example P221, 1-(4-bromo-2-fluoro-5-isopropoxy-phenyl)-3-[(1S)-1-(2-pyrimidin-2-yl-1,2,4-triazol-3-yl)ethyl]urea], in the assay with Plutella xylostella, the percent effect (mortality or growth inhibition) at 200 ppm was not below 80%. Also, the mortality at 12.5 ppm with Myzus persicae (setting [1]) was not below 80%. Moreover, in the assay on Chilo suppressalis, the percent control (mortality, anti-feedant effect or growth inhibition) at 200 ppm was not below 80%.

With `COc1cc(NC(=O)N[C@@H](C)c2ncnn2-c2ncccn2)c(C2CC2)cc1Cl` [Example P355, 1-(4-chloro-2-cyclopropyl-5-methoxy-phenyl)-3-[(1S)-1-(2-pyrimidin-2-yl-1,2,4-triazol-3-yl)ethyl]urea], the mortality at 12.5 ppm in the assay with Myzus persicae (setting [1]) was not below 80%. In the assay with Chilo suppressalis, the percent control (mortality, anti-feedant effect or growth inhibition) at 200 ppm was not below 80%.

`C[C@H](NC(=O)Nc1cnc(C(F)(F)F)cc1Cl)c1nccnc1-c1ccc(C#N)cn1` [Example P250, 1-[4-chloro-6-(trifluoromethyl)-3-pyridyl]-3-[(1S)-1-[3-(5-cyano-2-pyridyl)pyrazin-2-yl]ethyl]urea]: the percent effect (mortality or growth inhibition) at 200 ppm with Plutella xylostella is not below 80%. The mortality at 12.5 ppm with Myzus persicae (setting [1]) was not below 80%. For the same compound, the percent control (mortality, anti-feedant effect or growth inhibition) at 200 ppm in the assay with Spodoptera littoralis and with Chilo suppressalis was not below 80% throughout.

As for `C[C@H](NC(=O)Nc1ccc(F)cc1S(C)(=O)=O)c1ncnn1-c1ncccn1` [Example P99, 1-(4-fluoro-2-methylsulfonyl-phenyl)-3-[(1S)-1-(2-pyrimidin-2-yl-1,2,4-triazol-3-yl)ethyl]urea], the mortality at 12.5 ppm with Myzus persicae (setting [1]) was not below 80%.

On to `C[C@H](NC(=O)Nc1ccc(C(F)(F)F)cc1)c1ncnn1-c1ncccn1` [Example P122, 1-[(1S)-1-(2-pyrimidin-2-yl-1,2,4-triazol-3-yl)ethyl]-3-[4-(trifluoromethyl)phenyl]urea], for which the mortality at 12.5 ppm in the assay on Myzus persicae (setting [1]) was not below 80%.

As to `C[C@H](NC(=O)Nc1cc(Oc2ccc(C#N)cn2)c(Cl)cc1Cl)c1ncnn1-c1ncccn1` [Example P274, 1-[2,4-dichloro-5-[(5-cyano-2-pyridyl)oxy]phenyl]-3-[(1S)-1-(2-pyrimidin-2-yl-1,2,4-triazol-3-yl)ethyl]urea], the percent effect (mortality or growth inhibition) at 200 ppm in the assay on Plutella xylostella was not below 80%. Besides, in the assay on Myzus persicae (setting [1]), the mortality at 12.5 ppm is not below 80%. Moreover, the percent control (mortality, anti-feedant effect or growth inhibition) at 200 ppm with Chilo suppressalis was not below 80%.

As for `C[C@H](NC(=O)Nc1cc(OC(F)(F)F)c(F)cc1Br)c1ncnn1-c1ncccn1` [Example P316, 1-[2-bromo-4-fluoro-5-(trifluoromethoxy)phenyl]-3-[(1S)-1-(2-pyrimidin-2-yl-1,2,4-triazol-3-yl)ethyl]urea], the percent effect (mortality or growth inhibition) at 200 ppm in the assay with Plutella xylostella is not below 80%. Further, in the assay on Myzus persicae (setting [1]), the mortality at 12.5 ppm is not below 80%. Moreover, the percent control (mortality, anti-feedant effect or growth inhibition) at 200 ppm in the assay with Spodoptera littoralis and in the assay on Chilo suppressalis was not below 80% each time.

For `C[C@H](NC(=O)Nc1ccc(Br)cc1Br)c1ncnn1-c1ncccn1` [Example P130, 1-(2,4-dibromophenyl)-3-[(1S)-1-(2-pyrimidin-2-yl-1,2,4-triazol-3-yl)ethyl]urea], the percent effect (mortality or growth inhibition) at 200 ppm with Plutella xylostella is not below 80%. In the assay on Myzus persicae (setting [1]), the mortality at 12.5 ppm was not below 80%. Further, the percent control (mortality, anti-feedant effect or growth inhibition) at 200 ppm in the assay with Spodoptera littoralis and in the assay on Chilo suppressalis was not below 80% each time.

For `C[C@H](NC(=O)Nc1cc(F)c(Cl)cc1Cl)c1ncnn1-c1ncccn1` [Example P380, 1-(2,4-dichloro-5-fluoro-phenyl)-3-[(1S)-1-(2-pyrimidin-2-yl-1,2,4-triazol-3-yl)ethyl]urea], the percent effect (mortality or growth inhibition) at 200 ppm in the assay with Plutella xylostella was not below 80%. Moreover, in the assay with Myzus persicae (setting [1]), the mortality at 12.5 ppm is not below 80%. The percent control (mortality, anti-feedant effect or growth inhibition) at 200 ppm with Spodoptera littoralis and in the assay with Chilo suppressalis was not below 80% throughout.

As to `C[C@H](NC(=O)Nc1cc2c(cc1Br)OC(F)(F)O2)c1ncnn1-c1ncccn1` [Example P79, 1-(6-bromo-2,2-difluoro-1,3-benzodioxol-5-yl)-3-[(1S)-1-(2-pyrimidin-2-yl-1,2,4-triazol-3-yl)ethyl]urea], the percent effect (mortality or growth inhibition) at 200 ppm in the assay with Plutella xylostella is not below 80%. For the same compound, the mortality at 12.5 ppm in the assay with Myzus persicae (setting [1]) is not below 80%. The percent control (mortality, anti-feedant effect or growth inhibition) at 200 ppm in the assay on Spodoptera littoralis and with Chilo suppressalis was not below 80% each time.

Regarding `C[C@H](NC(=O)Nc1cc(Cl)c(C#N)cc1Cl)c1ncnn1-c1ncccn1` [Example P179, 1-(2,5-dichloro-4-cyano-phenyl)-3-[(1S)-1-(2-pyrimidin-2-yl-1,2,4-triazol-3-yl)ethyl]urea], the mortality at 12.5 ppm in the assay with Myzus persicae was not below 80%.

As to `C[C@H](NC(=O)Nc1ccc(C#N)cc1Br)c1ncnn1-c1ncccn1` [Example P30, 1-(2-bromo-4-cyano-phenyl)-3-[(1S)-1-(2-pyrimidin-2-yl-1,2,4-triazol-3-yl)ethyl]urea], the mortality at 12.5 ppm in the assay with Myzus persicae (setting [1]) is not below 80%. Further, in the assay with Chilo suppressalis, the percent control (mortality, anti-feedant effect or growth inhibition) at 200 ppm is not below 80%.

Take `CSc1cc(Cl)c(C(F)(F)F)cc1NC(=O)N[C@@H](C)c1ncnn1-c1ncccn1` [Example P360, 1-[4-chloro-2-methylsulfanyl-5-(trifluoromethyl)phenyl]-3-[(1S)-1-(2-pyrimidin-2-yl-1,2,4-triazol-3-yl)ethyl]urea]: in the assay with Myzus persicae (setting [1]), the mortality at 12.5 ppm is not below 80%. For the same compound, the percent control (mortality, anti-feedant effect or growth inhibition) at 200 ppm in the assay on Spodoptera littoralis and in the assay with Chilo suppressalis was not below 80% in each case.

`CCCOc1cc(NC(=O)N[C@@H](C)c2ncnn2-c2ncccn2)c(F)cc1Br` [Example P231, 1-(4-bromo-2-fluoro-5-propoxy-phenyl)-3-[(1S)-1-(2-pyrimidin-2-yl-1,2,4-triazol-3-yl)ethyl]urea]: in the assay with Plutella xylostella, the percent effect (mortality or growth inhibition) at 200 ppm is not below 80%. For the same compound, the mortality at 12.5 ppm in the assay on Myzus persicae (setting [1]) was not below 80%.

Regarding `COc1cc(Cl)c(NC(=O)N[C@@H](C)c2ncnn2-c2ncccn2)cc1OC` [Example P304, 1-(2-chloro-4,5-dimethoxy-phenyl)-3-[(1S)-1-(2-pyrimidin-2-yl-1,2,4-triazol-3-yl)ethyl]urea], the percent effect (mortality or growth inhibition) at 200 ppm with Plutella xylostella was not below 80%. In the assay with Myzus persicae (setting [1]), the mortality at 12.5 ppm was not below 80%.

For the compound `COC(=O)c1cc(NC(=O)N[C@@H](C)c2ncnn2-c2ncccn2)c(C(F)(F)F)cc1Cl` [Example P210, methyl 2-chloro-5-[[(1S)-1-(2-pyrimidin-2-yl-1,2,4-triazol-3-yl)ethyl]carbamoylamino]-4-(trifluoromethyl)benzoate], in the assay on Plutella xylostella, the percent effect (mortality or growth inhibition) at 200 ppm is not below 80%. In addition, in the assay with Myzus persicae (setting [1]), the mortality at 12.5 ppm was not below 80%. The percent control (mortality, anti-feedant effect or growth inhibition) at 200 ppm in the assay with Chilo suppressalis is not below 80%.

For the compound `COC(=O)c1cc(NC(=O)N[C@@H](C)c2ncnn2-c2ncccn2)c(C)cc1C` [Example P315, methyl 2,4-dimethyl-5-[[(1S)-1-(2-pyrimidin-2-yl-1,2,4-triazol-3-yl)ethyl]carbamoylamino]benzoate], in the assay on Myzus persicae (setting [1]), the mortality at 12.5 ppm is not below 80%.

As to `C[C@H](NC(=O)Nc1cc(F)c(C(F)(F)F)cc1F)c1ncnn1-c1ncccn1` [Example P332, 1-[2,5-difluoro-4-(trifluoromethyl)phenyl]-3-[(1S)-1-(2-pyrimidin-2-yl-1,2,4-triazol-3-yl)ethyl]urea], the mortality at 12.5 ppm in the assay with Myzus persicae (setting [1]) was not below 80%. Further, the percent control (mortality, anti-feedant effect or growth inhibition) at 200 ppm with Spodoptera littoralis and in the assay on Chilo suppressalis was not below 80% throughout.

Take `C[C@H](NC(=O)Nc1ccc(Br)cc1OC(F)F)c1nccnc1-c1ccc(C#N)cn1` [Example P247, 1-[4-bromo-2-(difluoromethoxy)phenyl]-3-[(1S)-1-[3-(5-cyano-2-pyridyl)pyrazin-2-yl]ethyl]urea]: the percent effect (mortality or growth inhibition) at 200 ppm in the assay on Plutella xylostella is not below 80%. Besides, the percent control (mortality, anti-feedant effect or growth inhibition) at 200 ppm in the assay with Spodoptera littoralis and in the assay on Chilo suppressalis was not below 80% each time.

Turning to `C[C@H](NC(=O)Nc1cc(Cl)c(Cl)cc1F)c1ncnn1-c1ncccn1` [Example P118, 1-(4,5-dichloro-2-fluoro-phenyl)-3-[(1S)-1-(2-pyrimidin-2-yl-1,2,4-triazol-3-yl)ethyl]urea], the percent effect (mortality or growth inhibition) at 200 ppm in the assay on Plutella xylostella was not below 80%. The percent control (mortality, anti-feedant effect or growth inhibition) at 200 ppm with Spodoptera littoralis and with Chilo suppressalis was not below 80% each time.

In general, mortality refers to the share of the test organisms that died.
